# Measured values: patent publication EP4806898A1, “HETEROARYL DERIVATIVE COMPOUND AND USE THEREOF” (Voronoi Inc., priority 2023, dated 2025)
# Like-named read-outs stand apart in the source and are kept apart here.
# Assays:
# recombinant USP1 protein = target: T1, recombinant USP1 protein (Homo sapiens, UniProt O94782, DEL125-138/DEL229-408/DEL608-737); assay: Binding affinity to recombinant USP1 protein by differential scanning fluorimetry; conditions: read-out: ΔTm (°C)
# T1 sequence (O94782 with tags, fused parts or gaps DEL125-138/DEL229-408/DEL608-737): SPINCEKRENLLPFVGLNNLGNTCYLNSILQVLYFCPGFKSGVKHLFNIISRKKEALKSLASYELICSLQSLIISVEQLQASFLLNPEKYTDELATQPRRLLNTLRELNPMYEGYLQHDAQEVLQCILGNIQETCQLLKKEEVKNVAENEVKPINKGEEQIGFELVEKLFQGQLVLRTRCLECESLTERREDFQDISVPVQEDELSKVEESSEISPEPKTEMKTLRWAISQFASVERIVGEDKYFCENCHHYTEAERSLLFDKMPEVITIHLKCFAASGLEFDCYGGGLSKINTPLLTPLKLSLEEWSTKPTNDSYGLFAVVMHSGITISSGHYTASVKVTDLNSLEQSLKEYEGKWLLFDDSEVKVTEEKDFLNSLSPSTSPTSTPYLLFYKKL
# Protocol: <Experimental Example 1> Confirmation and evaluation of the binding affinity to recombinant USP1 protein
# To evaluate the binding affinity of the compounds of the present invention to the USP1 protein, the following experiment was performed using differential scanning fluorimetry.
# Recombinant 0.03 mg/mL USP1 (Δ1-66, Δ125-138, Δ229-408, Δ608-737) protein, dye reagent, and buffer solution (50 mM Tris-HCl pH 8.0, 150 mM NaCl, 2% glycerol, 1 mM DTT) were mixed and 19 µL of the mixture was dispensed into a well plate (MicroAmp Fast 96-Well Reaction plate, 0.1 mL). Each compound was injected at a final concentration of 100 µM in an amount of 1 µL, and the plate containing a total of 20 µL was sealed with MicroAmp Optical Adhesive Film. The melting temperature (Tm) of the protein in each well was measured using a real-time PCR (RT-PCR) device. The difference between the Tm of the sample containing the compound and the Tm containing DMSO is referred to as delta Tm (ΔTm), where a larger ΔTm value indicates stronger binding affinity. The degree of temperature at which the protein is modified in the presence of the compound compared to DMSO was calculated according to Equation 1 below: [formula]
# UWB1.289 cells = assay: Cell proliferation inhibitory activity in BRCA1/2-mutant or HRD-positive cells (Cell Titer-Glo); assay type: cell-based; conditions: read-out: GI50 UWB1.289 BRCA1 mut
# Protocol: <Experimental Example 2> Evaluation of Cell Proliferation Inhibitory Activity in BRCA1/2-Mutant or HRD-Positive Cells
# To evaluate the inhibitory activity of the compound according to the present invention on the proliferation of BRCA1/2 mutants or homologous recombination deficient (HRD) positive cell lines, the following experiments were performed. UWB1.289 cells were cultured in medium (50% MEBM + 50% RPMI1640), and 1,000 cells were seeded in a well plate (black clear bottom 96-well plate, Corning) 16 to 24 hours prior to compound treatment. The compounds were diluted in dimethyl sulfoxide (3-fold serial dilution starting at 10 µM, for a total of 10 concentrations) and injected at 1 µl per well, resulting a final concentration range of […] to 10 µM. Measurements of live cells were performed by a reaction in a 37 °C and CO2 incubator for 144 hours after compound treatment. The cells were incubated for 10 minutes in an incubator using Cell Titer-Glo luminescent cell-viability reagent (Promega), and luminescence intensity thereof was measured using a reader (SynergyNeo2, Biotek). GI50 values were calculated using the GraphPad Prism version 8.4.3 (GraphPad software Inc., San Diego) program.
# [1] = compound 100 µM, 0.03 mg/mL USP1 (Δ1-66, Δ125-138, Δ229-408, Δ608-737), Tm with compound minus Tm with DMSO
# [2] = UWB1289, UWB1.289 cells, 144 hours after compound treatment, Cell Titer-Glo, 1.5 nM to 10 µM
smiles,measurement,setting,value
"COc1ncnc(C2CC2)c1-c1ncc2cc(C(=O)NCCN3CCOCC3)n(Cc3ccc(-c4nc(C(F)(F)F)cn4C(C)C)cc3)c2n1 [Example 6, 2-(4-cyclopropyl-6-methoxypyrimidin-5-yl)-7-(4-(1-isopropyl-4-(trifluoromethyl)-1H-imidazol-2-yl)benzyl)-N-(2-morpholinoethyl)-7H-pyrrolo[2,3-d]pyrimidine-6-carboxamide]",ΔTm at 100 µM,recombinant USP1 protein; [1],> 5 °C
same,GI50,UWB1.289 cells; [2],< 100 nM
"COc1ncnc(C2CC2)c1-c1ncc2cc(C(=O)NCC3(CO)CC3)n(Cc3ccc(-c4nc(C(F)(F)F)cn4C(C)C)cc3)c2n1 [Example 7, 2-(4-cyclopropyl-6-methoxypyrimidin-5-yl)-N-((1-(hydroxymethyl)cyclopropyl)methyl)-7-(4-(1-isopropyl-4-(trifluoromethyl)-1H-imidazol-2-yl)benzyl)-7H-pyrrolo[2,3-d]pyrimidine-6-carboxamide]",ΔTm at 100 µM,recombinant USP1 protein; [1],> 5 °C
same,GI50,UWB1.289 cells; [2],< 100 nM
"[2H]C([2H])([2H])NC(=O)c1cc2cnc(-c3c(OC)ncnc3C3CC3)nc2n1Cc1ccc(-c2nc(C(F)(F)F)cn2C(C)C)cc1 [Example 9, 2-(4-cyclopropyl-6-methoxypyrimidin-5-yl)-7-(4-(1-isopropyl-4-(trifluoromethyl)-1H-imidazol-2-yl)benzyl)-N-(methyl-d3)-7H-pyrrolo[2,3-d]pyrimidine-6-carboxamide]",ΔTm at 100 µM,recombinant USP1 protein; [1],> 5 °C
same,GI50,UWB1.289 cells; [2],100 to 500 nM
"COc1ncnc(C2CC2)c1-c1ncc2cc(C(=O)NC3CC3(F)F)n(Cc3ccc(-c4nc(C(F)(F)F)cn4C(C)C)cc3)c2n1 (centres unmarked) [Example 10, 2-(4-cyclopropyl-6-methoxypyrimidin-5-yl)-N-(2,2-difluorocyclopropyl)-7-(4-(1-isopropyl-4-(trifluoromethyl)-1H-imidazol-2-yl)benzyl)-7H-pyrrolo[2,3-d]pyrimidine-6-carboxamide]",ΔTm at 100 µM,recombinant USP1 protein; [1],> 5 °C
same,GI50,UWB1.289 cells; [2],< 100 nM
"COc1ncnc(C2CC2)c1-c1ncc2cc(C(=O)NC3CC3)n(Cc3ccc(-c4nc(C(F)(F)F)cn4C(C)C)cc3)c2n1 [Example 11, N-cyclopropyl-2-(4-cyclopropyl-6-methoxypyrimidin-5-yl)-7-(4-(1-isopropyl-4-(trifluoromethyl)-1H-imidazol-2-yl)benzyl)-7H-pyrrolo[2,3-d]pyrimidine-6-carboxamide]",ΔTm at 100 µM,recombinant USP1 protein; [1],> 5 °C
same,GI50,UWB1.289 cells; [2],< 100 nM
"COc1ncnc(C2CC2)c1-c1ncc2cc(C(=O)NCCN(C)C)n(Cc3ccc(-c4nc(C(F)(F)F)cn4C(C)C)cc3)c2n1 [Example 12, 2-(4-cyclopropyl-6-methoxypyrimidin-5-yl)-N-(2-(dimethylamino)ethyl)-7-(4-(1-isopropyl-4-(trifluoromethyl)-1H-imidazol-2-yl)benzyl)-7H-pyrrolo[2,3-d]pyrimidine-6-carboxamide]",ΔTm at 100 µM,recombinant USP1 protein; [1],> 5 °C
same,GI50,UWB1.289 cells; [2],100 to 500 nM
"COc1ncnc(C2CC2)c1-c1ncc2cc(C(=O)NC3COC3)n(Cc3ccc(-c4nc(C(F)(F)F)cn4C(C)C)cc3)c2n1 [Example 13, 2-(4-cyclopropyl-6-methoxypyrimidin-5-yl)-7-(4-(1-isopropyl-4-(trifluoromethyl)-1H-imidazol-2-yl)benzyl) -N-(oxetan-3-yl)-7H-pyrrolo[2,3-d]pyrimidine-6-carboxamide]",ΔTm at 100 µM,recombinant USP1 protein; [1],> 5 °C
same,GI50,UWB1.289 cells; [2],< 100 nM
"COc1ncnc(C2CC2)c1-c1ncc2cc(C(=O)N3CCC(N4CCOCC4)CC3)n(Cc3ccc(-c4nc(C(F)(F)F)cn4C(C)C)cc3)c2n1 [Example 14, (2-(4-cyclopropyl-6-methoxypyrimid in-5-yl)-7-(4-(1-isopropyl-4-(trifluoromethyl)-1H-imidazol-2-yl)benzyl)-7H-pyrrolo[2,3-d]pyrimidin-6-yl) (4-morpholinopipe ridin-1-yl)methanone]",ΔTm at 100 µM,recombinant USP1 protein; [1],> 5 °C
same,GI50,UWB1.289 cells; [2],< 100 nM
"COc1ncnc(C2CC2)c1-c1ncc2cc(C(=O)NC3CCC3)n(Cc3ccc(-c4nc(C(F)(F)F)cn4C(C)C)cc3)c2n1 [Example 15, N-cyclobutyl-2-(4-cyclopropyl-6-methoxypyrimidin-5-yl)-7-(4-(1-isopropyl-4-(trifluoromethyl)-1H-imidazol-2-yl)benzyl)-7H-pyrrolo[2,3-d]pyrimidine-6-carboxamide]",ΔTm at 100 µM,recombinant USP1 protein; [1],> 5 °C
same,GI50,UWB1.289 cells; [2],< 100 nM
"COc1ncnc(C2CC2)c1-c1ncc2cc(C(=O)Nc3ccccc3)n(Cc3ccc(-c4nc(C(F)(F)F)cn4C(C)C)cc3)c2n1 [Example 17, 2-(4-cyclopropyl-6-methoxypyrimidin-5-yl)-7-(4-(1-isopropyl-4-(trifluoromethyl)-1H-imidazol-2-yl)benzyl)-N-phenyl-7H-pyrrolo[2,3-d]pyrimidine-6-carboxamide]",ΔTm at 100 µM,recombinant USP1 protein; [1],> 5 °C
same,GI50,UWB1.289 cells; [2],< 100 nM
"COc1ncnc(C2CC2)c1-c1ncc2cc(C(=O)N3CCC3)n(Cc3ccc(-c4nc(C(F)(F)F)cn4C(C)C)cc3)c2n1 [Example 18, azetidin-1-yl(2-(4-cyclopropyl-6-methoxypyrimidin-5-yl)-7-(4-(1-isopropyl-4-(trifluoromethyl)-1H-imidazol-2-yl)benzyl)-7H-pyrrolo[2,3-d]pyrimidin-6-yl)methanone]",ΔTm at 100 µM,recombinant USP1 protein; [1],> 5 °C
same,GI50,UWB1.289 cells; [2],< 100 nM
"COc1ncnc(C2CC2)c1-c1ncc2cc(C(=O)NCC3CCC3)n(Cc3ccc(-c4nc(C(F)(F)F)cn4C(C)C)cc3)c2n1 [Example 19, N-(cyclobutylmethyl)-2-(4-cyclopropyl-6-methoxypyrimidin-5-yl)-7-(4-(1-isopropyl-4-(trifluoromethyl)-1H-imidazol-2-yl)benzyl)-7H-pyrrolo[2,3-d]pyrimidine-6-carboxamide]",ΔTm at 100 µM,recombinant USP1 protein; [1],> 5 °C
same,GI50,UWB1.289 cells; [2],< 100 nM
"COc1ncnc(C2CC2)c1-c1ncc2cc(C(=O)NCC3(C)CC(F)(F)C3)n(Cc3ccc(-c4nc(C(F)(F)F)cn4C(C)C)cc3)c2n1 [Example 20, 2-(4-cyclopropyl-6-methoxypyrimidin-5-yl)-N-((3,3-difluoro-1-methylcyclobutyl)methyl)-7-(4-(1-isopropyl-4-(trifluoromethyl)-1H-imidazol-2-yl)benzyl)-7H-pyrrolo[2,3-d]pyrimidine-6-carboxamide]",ΔTm at 100 µM,recombinant USP1 protein; [1],> 5 °C
same,GI50,UWB1.289 cells; [2],100 to 500 nM
"COc1ncnc(C2CC2)c1-c1ncc2cc(C(=O)NCCF)n(Cc3ccc(-c4nc(C(F)(F)F)cn4C(C)C)cc3)c2n1 [Example 21, 2-(4-cyclopropyl-6-methoxypyrimidin-5-yl)-N-(2-fluoroethyl)-7-(4-(1-isopropyl-4-(trifluoromethyl)-1H-imidazol-2-yl)benzyl)-7H-pyrrolo[2,3-d]pyrimidine-6-carboxamide]",ΔTm at 100 µM,recombinant USP1 protein,> 5 °C
same,GI50,"UWB1.289 cells; UWB1289, 144 h",< 100 nM
"COc1ncnc(C2CC2)c1-c1ncc2cc(C(=O)NCC#N)n(Cc3ccc(-c4nc(C(F)(F)F)cn4C(C)C)cc3)c2n1 [Example 22, N-(cyanomethyl) - 2-(4-cyclopropyl-6-methoxypyrimidin-5-yl)-7-(4-(1-isopropyl-4-(trifluoromethyl)-1H-imidazol-2-yl)benzyl)-7H-pyrrolo[2,3-d]pyrimidine-6-carboxamide]",ΔTm at 100 µM,recombinant USP1 protein; [1],> 5 °C
same,GI50,UWB1.289 cells; [2],< 100 nM
"COC[C@H](C)NC(=O)c1cc2cnc(-c3c(OC)ncnc3C3CC3)nc2n1Cc1ccc(-c2nc(C(F)(F)F)cn2C(C)C)cc1 [Example 23, (S)-2-(4-cyclopropyl-6-methoxypyrimidin-5-yl)-7-(4-(1-isopropyl-4-(trifluoromethyl)-1H-imidazol-2-yl)benzyl)-N-(1-methoxypropan-2-yl)-7H-pyrrolo[2,3-d]pyrimidine-6-carboxamide]",ΔTm at 100 µM,recombinant USP1 protein; [1],> 5 °C
same,GI50,UWB1.289 cells; [2],< 100 nM
